These results are taken from patent US11857529B2, “Methods for treating melanoma” (Olatec Therageutics, Inc., priority 2018, dated 2024).

The subject of data set [1] is B16F10 cells. Briefly: B16F10 melanoma Matrigel plug tumor growth in mice fed standard or OLT1177 diet. The class given is in vivo. The following applies: OLT1177 diet 7.5 g/kg food (approx. 100 mg/kg/day) vs standard diet, 15 days after plug instillation; FIG. 1A. The method, then: (§1) C57BL/6J male mice, 6-8 weeks old (The Jackson Laboratory), were fed ad libitum with either a standard diet or a diet containing OLT1177® (dapansutrile) at a dose of 7.5 g per Kg of food for one week before subcutaneous instillation of a mixture of Matrigel and B16F10 cells (2×10^5) on the hind quarter of the mice. The dosage was approximately […] based on feed concentrations of 7.5 g/kg and food consumption of 4 g/day. These diets were continued after tumor implantation. Mice were sacrificed following 15 days from the plug instillation. Tissue and plasma were assessed after 15-day post-inoculation.

Data set [2] has as its system HUVEC. Briefly: Angiogenesis assay (HUVEC) with melanoma conditioned media from 1205Lu cells. The data set is classed as cell-based, human. The following applies: MCM from 1205Lu cells treated with OLT1177 vs MCM, 5 hours on Matrigel; FIG. 2C. The method, then: Cell culture. 1205Lu human melanoma cells were cultured in RPMI. Each was supplemented with 10% FBS, 100 units/mL penicillin, 0.1 mg/ml streptomycin. Cells were maintained in a humidified 5% CO2 atmosphere at 37 C. Human metastatic melanoma cell line 1205Lu were plated in RPMI at 2.5×10^5 per well in a 24-wells plate and allowed to adhere overnight. The following day, media was replaced with fresh RPMI 10% FBS with or without OLT1177® (dapansutrile). For the induction of cytokine production IL-1α (20 ng/ml) was used. OLT1177® was added 30 minutes prior to stimulation. Supernatants were collected, in both unstimulated and stimulated conditions at 24 hours.
Angiogenesis assay (HUVEC). HUVEC cells were seeded on media with no growth factors overnight. Cells were plated onto Matrigel (Corning) coated wells at 8×10^4 cells per well in a 24 well plate. Cells were then incubated for 5 hours in the presence of HUVEC complete media (control), MCM or MCM in which 1205Lu cells were treated with OLT1177®. MCM was added without dilution. Media was then removed and matrigel was preserved in PFA4%. Pictures were taking at 40× and branching points were counted using the cross method.
The effects of dapansutrile on angiogenesis was determined in vitro using human umbilical vein endothelial cells (HUVEC). […]

Data set [3] relates to IL-17. In words: Intracellular cytokine staining for IL-17 in spleen-derived T cells of tumor-bearing mice. The class given is in vivo. The following applies: OLT1177 diet vs standard diet, FIG. 1E. The method, then: as §1
For data set [4], the system named is M-MDSC (CD11b+Ly6G−Ly6Chi). In words: Flow cytometry of M-MDSC in tumor-bearing mice. The class given is in vivo. The note with it: tumor-bearing mice on dapansutrile diet, relative to non-tumor-bearing mice. The text has this: (§2) Flow cytometry analysis was used to assess the effect of NLRP3 inhibition on the activation and expansion of MDSCs, key mediators of tumor-associated immunosuppression. Bone marrow, spleen, and lymph node-derived cells were isolated and analyzed for the two main MDSCs subtypes: polymorphonuclear MDSCs (PMN-MDSC) expressing CD11b^+Ly6G^+Ly6C^lo and monocytic MDSCs (M-MDSC) expressing CD11b^+Ly6G^−Ly6C^hi. […] In the spleen, the level of PMN-MDSCs in tumor-bearing mice was increased compared to non-tumor-bearing mice (FIG. 4B). However, in mice fed the dapansutrile diet, we observed a restoration of the PMN-MDSC population at the level observed in the non-tumor-bearing mice (FIGS. 4A-4B). […] Treatment with dapansutrile prevented the tumor-induced effect on M-MDSCs expansion, normalizing the population to the non-tumor-bearing mice level (FIGS. 4D-4F).
(In general: In flow cytometry, cells or beads pass a laser one at a time.)

Data set [5] deals with G-CSF. In words: Plasma G-CSF in B16F10 tumor-bearing mice. The following applies: OLT1177 diet vs standard diet, day 15, FIG. 1C. The data set is classed as in vivo. The method, then:
(§3) Cytokine measurements. Cytokines in supernatants and cell lysates were measured by specific ELISA according to the manufacturer's instructions (DuoSet, R&D Systems, Minneapolis, MN).
as §1

The subject of data set [6] is VEGF. Briefly: Plasma VEGF in tumor-bearing mice (tumor angiogenesis model). The data set is classed as in vivo. The note with it: 7 days after plug, OLT1177 diet vs standard diet, FIG. 2A. The method, then:
(§4) Tumor Angiogenesis Model. A mixture of Matrigel and B16F10 (2×10^5) was inoculated s.c. in the interscapular area of mice fed standard or OLT1177® diet. Following 7 days from the implantation, the plugs were removed, fixed in 4% paraformaldehyde, embedded in paraffin and sectioned (4 μm). Following, the sections were de-paraffinized, hydrated and stained with hematoxylin/eosin. Separate sections were subjected to heat-induced antigen retrieval (10 mM Citrate 0.05% Tween 20-pH 6.0) at 95° C. for 15 min. The sections were then placed in a humidified slide chamber, blocked for 1 h in 10% normal donkey serum (Jackson Immunologicals) and immunostained using an antibody for Von Willebrand factor (1:100, Millipore-Sigma, Burlington, MA) overnight at 4° C. for identification of new vessel formation. Anti-rabbit horseradish peroxidase enzyme (HRP) conjugated antibody (1:100, Jackson ImmunoResearch Laboratories, West Grove, PA) were used as secondary antibody for 2 hours at room temperature. […]
We next determined the ability of dapansutrile on inhibition of angiogenesis, an acquired ability of tumor cells to sustain a blood supply to nourish the growing tumor mass. […] After seven days to allow endothelial cell infiltration, plugs were removed, and plasma VEGF levels were determined.

Data set [7] deals with NLRP3 inflammasome (Homo sapiens, UniProt Q96P20). The note with it: reference 9; cited from earlier work.
The conditions of data set [8]: healthy subjects, reference 9; cited from earlier work.
Data set [9] deals with IL-6. Briefly: Plasma IL-6 in B16F10 tumor-bearing mice. The class given is in vivo. The note with it: OLT1177 diet vs standard diet, day 15, FIG. 1B. The method, then:
as §3, §1

In data set [10] the test system is PMN-MDSC (CD11b+Ly6G+Ly6Clo). In words: Flow cytometry of PMN-MDSC in tumor-bearing mice. The class given is in vivo.
Text: as §2

For data set [11], the system named is Von Willebrand Factor stained endothelial cells. Briefly: Tumor angiogenesis model: Von Willebrand Factor staining of B16F10 Matrigel plugs. The data set is classed as in vivo, mice. The following applies: 7 days after implantation, OLT1177 diet vs standard diet; FIG. 2B. The procedure: as §4, with “temperature. Sections were then incubated for 5-10 min with HRP substrate as directed by the manufacturer's instructions (NovaRED substrate, Vector Laboratories, Burlingame, CA). Nuclei counterstaining were achieved using Mayer's Hematoxylin counterstaining (Thermo Fisher scientific Waltham, MA).” for “temperature.”

Data set [12] deals with IL-22. In words: Intracellular cytokine staining for IL-22 in spleen-derived T cells of tumor-bearing mice. The class given is in vivo. The note with it: OLT1177 diet vs standard diet, FIG. 1D. The method, then:
as §1

Data set [13] has as its system B16F10-GFP cells. In words: Metastasis model: i.v. B16F10-GFP cells, GFP+ cell counts in lung and liver. The data set is classed as in vivo, mice. The note with it: 21 days after i.v. B16F10-GFP, OLT1177 diet vs standard diet. The procedure:
Metastasis Model. Metastasis formation was determined following tail intravenous (i.v.) injection of B16F10-GFP (1×10^6) cells in mice fed standard or OLT1177® diet. Before injection, the B16F10-GFP+ cells were sorted by flow cytometry and only the top brightest 10% cells were injected. Mice were sacrificed after 21 days from the cell injection and lung and liver were isolated and prepared for histology. Previous isolation, lungs were inflated with a solution containing 0.5% low melting agarose to avoid the tissue from collapsing. The presence of GFP-positive cell in the lung and liver of tumor bearing mice were performed by fluorescent microscopy. Tissue sections were stained with Alexa Fluor conjugated WGA, for membranes detection and DAPI, for nuclear stain. Images were acquired blindly and randomly across the tissue sections to obtain 7-10 images per tissue section. GFP positive cells were counted in each image and the results reported as number of GFP+ cells/field area (full chip field).
To determine whether dapansutrile reduces tissue invasion and metastasis, B16F10-GFP labeled cells were injected intravenously in mice fed with standard or OLT1177® diets.

Sequence of NLRP3 inflammasome (Q96P20 whole entry): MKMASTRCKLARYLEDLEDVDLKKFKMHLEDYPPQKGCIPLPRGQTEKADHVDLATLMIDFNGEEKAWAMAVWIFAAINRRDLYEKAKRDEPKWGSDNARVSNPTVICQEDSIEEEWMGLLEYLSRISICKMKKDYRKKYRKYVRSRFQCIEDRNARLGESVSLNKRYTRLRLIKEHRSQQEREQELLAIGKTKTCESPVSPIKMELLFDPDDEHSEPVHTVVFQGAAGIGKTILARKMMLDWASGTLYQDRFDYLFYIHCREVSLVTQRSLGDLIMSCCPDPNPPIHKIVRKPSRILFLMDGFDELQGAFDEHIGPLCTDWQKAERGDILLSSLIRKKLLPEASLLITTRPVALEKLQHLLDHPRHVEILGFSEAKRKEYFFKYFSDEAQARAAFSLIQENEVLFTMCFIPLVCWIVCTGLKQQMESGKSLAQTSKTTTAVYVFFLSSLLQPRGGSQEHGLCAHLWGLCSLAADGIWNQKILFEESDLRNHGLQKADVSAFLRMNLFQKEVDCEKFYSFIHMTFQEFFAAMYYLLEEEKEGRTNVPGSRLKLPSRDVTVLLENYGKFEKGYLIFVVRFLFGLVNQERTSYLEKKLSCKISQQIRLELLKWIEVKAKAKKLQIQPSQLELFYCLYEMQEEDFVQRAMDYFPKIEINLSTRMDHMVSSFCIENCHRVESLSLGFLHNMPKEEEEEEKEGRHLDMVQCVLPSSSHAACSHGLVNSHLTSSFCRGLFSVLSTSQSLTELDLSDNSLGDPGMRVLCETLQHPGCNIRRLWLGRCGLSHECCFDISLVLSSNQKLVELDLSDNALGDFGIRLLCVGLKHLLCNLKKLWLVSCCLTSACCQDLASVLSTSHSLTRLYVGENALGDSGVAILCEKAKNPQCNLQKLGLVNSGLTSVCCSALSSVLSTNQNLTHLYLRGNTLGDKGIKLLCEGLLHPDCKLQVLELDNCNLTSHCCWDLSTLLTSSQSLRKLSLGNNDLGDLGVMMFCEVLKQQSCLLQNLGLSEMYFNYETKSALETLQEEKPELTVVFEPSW

`CS(=O)(=O)CCC#N` [OLT1177®, 3-methanesulfonyl-propionitrile]: the tumor volume entry in [1] is recorded as “reduced”. For the same compound, in data set [2], the “HUVEC orientation (number of branching points / tubular-like structures)” value is “significantly reduced”. The “IL-17 (ICCS, spleen-derived T cells)” value in data set [3] is “No changes”. Besides, the “M-MDSC population in bone marrow” value in data set [4] (FIG. 4D) is on record as “normalizing”. In addition, in [4] (FIG. 4E), the “M-MDSC population in spleen” value was “normalizing”. Also, in data set [4] (FIG. 4F), the “M-MDSC population in lymph nodes” value is “normalizing”. Moreover, the “plasma levels of G-CSF” value in data set [5] was “significantly reduced”. Besides, the “circulating VEGF levels” value in data set [6] is on record as “significantly lower”. Further, the “inhibition of the NLRP3 inflammasome” value in data set [7] is “selectively inhibit”. The “safety when orally administered” value in [8] is “safe”. Besides, the “plasma levels of IL-6” value in [9] is reported as “significantly reduced”. In addition, in data set [10] (dapansutrile diet vs standard diet, FIG. 4C), the “PMN-MDSCs in lymph nodes” value was “reduction”. Further, the “PMN-MDSC population in bone marrow” value in data set [10] (tumor-bearing mice on dapansutrile diet, relative to non-tumor-bearing mice, FIG. 4A) was “restoration”. In data set [10] (tumor-bearing mice on dapansutrile diet, relative to non-tumor-bearing mice, FIG. 4B), the “PMN-MDSC population in spleen” value is “restoration”. In addition, the “VWF stained endothelial cells in matrigel plugs (new vessel formation)” value in [11] is “reduced”. In addition, the “IL-22 levels (ICCS, spleen-derived T cells)” value in data set [12] is on record as “reduced”. Moreover, the “reduction of number of GFP+ cells in the lungs” value in data set [13] (p<0.0001, FIG. 3A) is given as 66%. The “change in number of GFP+ cells in the liver” value in [13] (p<0.001, FIG. 3B) is recorded as −60%.
